Results as given in article PMC12811658, “Design, Synthesis, and Structural Evolution of Pseudo‐Natural Product IDO1 Inhibitors and Degraders” (Angewandte Chemie (International Ed. in English), 2025).
Entries after “also recorded” stand apart in the source; their conditions may differ.

Test system: Kyn levels in BxPC3 cells (kynurenine generated by IDO1)
Experiment: Cellular Kyn assay (automated Kyn screening assay)
Type: cell-based
Conditions: for IC50: Homo sapiens, BXPC-3, 48 h, IFN-γ, L-Trp and compounds 48 h, mean ± SD, read-out: IC50 (Kyn assay), reduction of kynurenine levels

Row | SMILES | IC50 [nM] | also measured
1 | CC(C)(C)c1ccc(S(=O)(=O)N2C[C@H]3C[C@H]4C[C@H](C4(C)C)[C@@]3(COC(=O)Nc3ccccc3)C2)cc1 [compound 32, ((3aS,4R,6R,7aS)-2-((4-(tert-butyl)phenyl)sulfonyl)-5,5-dimethyloctahydro-3aH-4,6-methanoisoindol-3a-yl)methyl phenylcarbamate] | 7000 ± 1600 | –
2 | CC(C)(C)c1ccc(S(=O)(=O)N2C[C@H]3C[C@H]4C[C@H](C4(C)C)[C@@]3(COC(=O)Nc3ccc(F)cc3)C2)cc1 [compound 34, ((3aS,4R,6R,7aS)-2-((4-(tert-butyl)phenyl)sulfonyl)-5,5-dimethyloctahydro-3aH-4,6-methanoisoindol-3a-yl)methyl (4-fluorophenyl)carbamate] | > 10000 | –
3 | Cc1ccc(OC(=O)OC[C@]23CN(S(=O)(=O)c4ccc(C(C)(C)C)cc4)C[C@H]2C[C@H]2C[C@@H]3C2(C)C)cc1 [compound 13, ((3aS,4R,6R,7aS)-2-((4-(tert-butyl)phenyl)sulfonyl)-5,5-dimethyloctahydro-3aH-4,6-methanoisoindol-3a-yl)methyl p-tolyl carbonate] | – | activity in cellular Kyn assay (in words): did not improve activity; also recorded: inactive
4 | CC(C)(C)c1ccc(S(=O)(=O)N2CC3CCCCC3(COC(=O)Nc3ccc(I)cc3)C2)cc1 (centres unmarked) [compound 25, (2-((4-(tert-butyl)phenyl)sulfonyl)octahydro-3aH-isoindol-3a-yl) methyl (4-iodophenyl) carbamate] | – | activity in cellular Kyn assay (in words): inactive
5 | CC(C)[C@]12C[C@@H](OC(=O)Nc3ccc(I)cc3)[C@]3(CCN(S(=O)(=O)c4ccc(C(C)(C)C)cc4)C3)[C@H]1C2 [compound 23, (1S,2R,3R,5S)-1'-((4-(tert-butyl)phenyl)sulfonyl)-5-isopropylspiro[bicyclo[3.1.0]hexane-2,3'-pyrrolidin]-3-yl (4-iodophenyl) carbamate] | – | activity in cellular Kyn assay (in words): inactive
6 | Cc1ccc(NC(=O)OC[C@]23CN(Cc4ccccc4)C[C@H]2C[C@H]2C[C@@H]3C2(C)C)cc1 [compound 9, ((3aS,4R,6R,7aS)-2-benzyl-5,5-dimethyloctahydro-3aH-4,6-methanoisoindol-3a-yl) methyl p-tolylcarbamate] | – | activity in cellular Kyn assay (in words): abolished activity; also recorded: loss of activity
7 | CC(C)(C)c1ccc(S(=O)(=O)N2CC3CCCC3(COC(=O)Nc3ccc(I)cc3)C2)cc1 (centres unmarked) [compound 26, (2-((4-(tert-butyl)phenyl)sulfonyl)hexahydrocyclopenta [c]pyrrol-3a(1H)-yl) methyl (4-iodophenyl) carbamate] | – | activity in cellular Kyn assay (in words): inactive
8 | CC(C)(C)c1ccc(S(=O)(=O)N2CC3C[C@H]4C[C@H](C4(C)C)[C@]3(COC(=O)c3ccccc3)C2)cc1 (stereo partly drawn) [compound 15, ((3aR,4R,6R)-2-((4-(tert-butyl)phenyl)sulfonyl)-5,5-dimethyloctahydro-3aH-4,6-methanoisoindol-3a-yl)methyl benzoate] | – | activity in cellular Kyn assay (in words): did not improve activity; also recorded: inactive
9 | CC(C)(C)c1ccc(C(=O)N2C[C@H]3C[C@H]4C[C@H](C4(C)C)[C@@]3(COC(=O)Nc3ccc(I)cc3)C2)cc1 [compound 16, ((3aS,4R,6R,7aS)-2-(4-(tert-butyl)benzoyl)-5,5-dimethyloctahydro-3aH-4,6-methanoisoindol-3a-yl)methyl (4-iodophenyl)carbamate] | – | activity in cellular Kyn assay (in words): abolished activity
10 | CC(C)(C)c1ccc(S(=O)(=O)N2C[C@@H]3C[C@@H]4C[C@@H](C4(C)C)[C@]3(COC(=O)Nc3ccc(I)cc3)C2)cc1 [compound 20, ((3aR,4S,6S,7aR)-2-((4-(tert-butyl)phenyl)sulfonyl)-5,5-dimethyloctahydro-3aH-4,6-methanoisoindol-3a-yl)methyl (4-iodophenyl)carbamate] | – | fold lower activity than 14 (iDeg-2) in Kyn assay: 16 fold

Further lines, with some results ahead:

Row | IC50 [nM] | SMILES | also measured
11 | 450 ± 390 | CC1(C)CCC(C)(C)c2cc(S(=O)(=O)N3C[C@H]4C[C@H]5C[C@H](C5(C)C)[C@@]4(COC(=O)Nc4ccc(I)cc4)C3)ccc21 [compound 73, ((3aS,4R,6R,7aS)-5,5-dimethyl-2-((5,5,8,8-tetramethyl-5,6,7,8-tetrahydronaphthalen-2-yl)sulfonyl)octahydro-3aH-4,6-methanoisoindol-3a-yl)methyl (4-iodophenyl)carbamate] | –
12 | 390 ± 70 | CC(C)(C)c1ccc(S(=O)(=O)N2C[C@H]3C[C@H]4C[C@H](C4(C)C)[C@@]3(COC(=O)Nc3ccccc3Br)C2)cc1 [compound 38, ((3aS,4R,6R,7aS)-2-((4-(tert-butyl)phenyl)sulfonyl)-5,5-dimethyloctahydro-3aH-4,6-methanoisoindol-3a-yl)methyl (2-bromophenyl)carbamate] | –
13 | 230 ± 60 | CC(C)(C)Cc1ccc(S(=O)(=O)N2C[C@H]3C[C@H]4C[C@H](C4(C)C)[C@@]3(COC(=O)Nc3ccc(I)cc3)C2)cc1 [compound 74, ((3aS,4R,6R,7aS)-5,5-dimethyl-2-((4-neopentylphenyl)sulfonyl)octahydro-3aH-4,6-methanoisoindol-3a-yl)methyl (4-iodophenyl)carbamate] | –
14 | 3000 ± 1300 | Cc1ccc(NC(=O)OC[C@]23CN(S(=O)(=O)c4ccc(OC(F)(F)F)cc4)C[C@H]2C[C@H]2C[C@@H]3C2(C)C)cc1 [compound 58, ((3aS,4R,6R,7aS)-5,5-dimethyl-2-((4-(trifluoromethoxy)phenyl)sulfonyl)octahydro-3aH-4,6-methanoisoindol-3a-yl)methyl p-tolylcarbamate] | –
15 | > 10000 | CC(C)(C)c1ccc(S(=O)(=O)N2C[C@H]3C[C@H]4C[C@H](C4(C)C)[C@@]3(COC(=O)Nc3ccc(O)cc3)C2)cc1 [compound 42, ((3aS,4R,6R,7aS)-2-((4-(tert-butyl)phenyl)sulfonyl)-5,5-dimethyloctahydro-3aH-4,6-methanoisoindol-3a-yl)methyl (4-hydroxyphenyl)carbamate] | –
16 | 32 ± 11 | COC(=O)CC(C)(C)c1ccc(S(=O)(=O)N2C[C@H]3C[C@H]4C[C@H](C4(C)C)[C@@]3(COC(=O)Nc3ccc(I)cc3)C2)cc1 [compound 90, Methyl 3-(4-(((3aS,4R,6R,7aS)-3a-((((4-iodophenyl)carbamoyl)oxy)methyl)-5,5-dimethyloctahydro-2H-4,6-methanoisoindol-2-yl)sulfonyl)phenyl)-3-methylbutanoate] | –
17 | 1300 ± 300 | Cc1ccc(S(=O)(=O)N2C[C@H]3C[C@H]4C[C@H](C4(C)C)[C@@]3(COC(=O)Nc3ccc(I)cc3)C2)cn1 [compound 62, ((3aS,4R,6R,7aS)-5,5-dimethyl-2-((6-methylpyridin-3-yl)sulfonyl)octahydro-3aH-4,6-methanoisoindol-3a-yl)methyl (4-iodophenyl)carbamate] | –
18 | 2100 ± 800 | CC(C)(C)c1ccc(S(=O)(=O)N2C[C@H]3C[C@H]4C[C@H](C4(C)C)[C@@]3(COC(=O)Nc3ccc(C#N)cc3)C2)cc1 [compound 47, ((3aS,4R,6R,7aS)-2-((4-(tert-butyl)phenyl)sulfonyl)-5,5-dimethyloctahydro-3aH-4,6-methanoisoindol-3a-yl)methyl (4-cyanophenyl)carbamate] | –
19 | 2600 ± 500 | CC1(C)[C@H]2C[C@@H]3CN(S(=O)(=O)c4ccccc4)C[C@]3(COC(=O)Nc3ccc(I)cc3)[C@@H]1C2 [compound 65, ((3aS,4R,6R,7aS)-5,5-dimethyl-2-(phenylsulfonyl)octahydro-3aH-4,6-methanoisoindol-3a-yl)methyl (4-iodophenyl)carbamate] | –
20 | 400 ± 100 | CC1(C)[C@H]2C[C@@H]3CN(S(=O)(=O)c4ccc5ccccc5c4)C[C@]3(COC(=O)Nc3ccc(I)cc3)[C@@H]1C2 [compound 64, ((3aS,4R,6R,7aS)-5,5-dimethyl-2-(naphthalen-2-ylsulfonyl)octahydro-3aH-4,6-methanoisoindol-3a-yl)methyl (4-iodophenyl)carbamate] | –
21 | 1200 ± 200 | COc1ccc(NC(=O)OC[C@]23CN(S(=O)(=O)c4ccc(C(C)(C)C)cc4)C[C@H]2C[C@H]2C[C@@H]3C2(C)C)cc1 [compound 44, ((3aS,4R,6R,7aS)-2-((4-(tert-butyl)phenyl)sulfonyl)-5,5-dimethyloctahydro-3aH-4,6-methanoisoindol-3a-yl)methyl (4-methoxyphenyl)carbamate] | –
22 | 850 ± 270 | CN(C)C(=O)C(C)(C)c1ccc(S(=O)(=O)N2C[C@H]3C[C@H]4C[C@H](C4(C)C)[C@@]3(COC(=O)Nc3ccc(I)cc3)C2)cc1 [compound 87, ((3aS,4R,6R,7aS)-2-((4-(1-(dimethylamino)-2-methyl-1-oxopropan-2-yl)phenyl)sulfonyl)-5,5-dimethyloctahydro-3aH-4,6-methanoisoindol-3a-yl)methyl (4-iodophenyl)carbamate] | –
23 | > 10000 | CC(C)(C)c1ccc(-c2ccc(S(=O)(=O)N3C[C@H]4C[C@H]5C[C@H](C5(C)C)[C@@]4(COC(=O)Nc4ccc(I)cc4)C3)cc2)cc1 [compound 76, ((3aS,4R,6R,7aS)-2-((4'-(tert-butyl)-[1,1'-biphenyl]-4-yl)sulfonyl)-5,5-dimethyloctahydro-3aH-4,6-methanoisoindol-3a-yl)methyl (4-iodophenyl)carbamate] | –
24 | 6100 ± 900 | CC1(C)[C@H]2C[C@@H]3CN(S(=O)(=O)c4cccnc4)C[C@]3(COC(=O)Nc3ccc(I)cc3)[C@@H]1C2 [compound 61, ((3aS,4R,6R,7aS)-5,5-dimethyl-2-(pyridin-3-ylsulfonyl)octahydro-3aH-4,6-methanoisoindol-3a-yl)methyl (4-iodophenyl)carbamate] | –
25 | 340 ± 170 | CC1(C)[C@H]2C[C@@H]3CN(S(=O)(=O)c4ccc(-c5ccccc5)cc4)C[C@]3(COC(=O)Nc3ccc(I)cc3)[C@@H]1C2 [compound 70, ((3aS,4R,6R,7aS)-2-([1,1'-biphenyl]-4-ylsulfonyl)-5,5-dimethyloctahydro-3aH-4,6-methanoisoindol-3a-yl)methyl (4-iodophenyl)carbamate] | –
26 | 650 ± 270 | Cc1ccccc1S(=O)(=O)N1C[C@H]2C[C@H]3C[C@H](C3(C)C)[C@@]2(COC(=O)Nc2ccc(I)cc2)C1 [compound 66, ((3aS,4R,6R,7aS)-5,5-dimethyl-2-(o-tolylsulfonyl)octahydro-3aH-4,6-methanoisoindol-3a-yl)methyl (4-iodophenyl)carbamate] | –
